Some test systems named below: SF-268; IGROV-1; NCI/ADR-RES; OVCAR-3; MOLT-4; HT-29; MDA-MB-231; COLO 205; T47D; MCF7; BT-549; NCI-H522; UACC-257; HL-60; 786-0; SN12C; HCT-116; HOP-62; SR; DU-145.
Assay in all cases: inhibition of tumour cell growth, NCI panel, 48 h

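All cell lines were grown in 96-well plates and treated with compound for 48 hours. GI50 = concentration required for 50% inhibition of growth.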 Active and inactive are the calls of the source. Cut-off read from the data, not from the text of the source: active = GI50 up to about 1.1 µM and inactive = higher.

With `Nc1nc(N)c(CCCCc2ccccc2)c(N)n1`, the GI50 with SF-268, in the assay with IGROV-1, with NCI/ADR-RES, with OVCAR-3, in the assay on MOLT-4 and with HT-29 was > 100 µM (inactive) each time. Moreover, the GI50 in the assay on MDA-MB-231, in the assay with COLO 205, in the assay with T47D, in the assay with MCF7, in the assay with BT-549 and in the assay with NCI-H522 was > 100 µM (inactive) each time. The GI50 in the assay on UACC-257, in the assay with HL-60, in the assay with 786-0, with SN12C, in the assay with HCT-116 and in the assay on HOP-62 was > 100 µM (inactive) throughout. Further, the GI50 with SR and in the assay with DU-145 was > 100 µM (inactive) each time.
On to `C[n+]1c(-c2ccc(/C=N\N3CCN(/N=C/c4ccc(-c5cn6ccccc6[n+]5C)cc4)CC3)cc2)cn2ccccc21`, for which the GI50 with SF-268 was 48.2 µM (inactive); in the assay on IGROV-1, 57.9 µM (inactive); in the assay with NCI/ADR-RES, > 100 µM (inactive); in the assay on OVCAR-3, > 100 µM (inactive); in the assay on MOLT-4, 68.7 µM (inactive); in the assay with HT-29, > 100 µM (inactive). The GI50 with MDA-MB-231 is 27.3 µM (inactive); in the assay on COLO 205, 27.1 µM (inactive); in the assay with T47D it was 34.9 µM (inactive); with MCF7, > 100 µM (inactive); with BT-549, 35 µM (inactive); with NCI-H522, 83.9 µM (inactive). Further, the GI50 in the assay on UACC-257 was 5.24 µM (inactive); in the assay on HL-60, 21.2 µM (inactive); in the assay with 786-0, 21.9 µM (inactive); with SN12C, 54.5 µM (inactive); in the assay with HCT-116, 70.8 µM (inactive); with SR, 30.7 µM (inactive). For the same molecule, in the assay with DU-145, the GI50 is 34.4 µM (inactive).
Take `CO[C@H]1O[C@@H]2CO[C@@H](c3ccccc3)O[C@H]2C[C@]12CCC/C=C\CO2`: the GI50 in the assay on SF-268 is 14.4 µM (inactive); in the assay on NCI/ADR-RES it was 21 µM (inactive); in the assay with OVCAR-3, 12.7 µM (inactive); in the assay on MOLT-4 it was 12.9 µM (inactive); with HT-29 it was 17.7 µM (inactive); with MDA-MB-231 it was 16.7 µM (inactive). Moreover, the GI50 in the assay on COLO 205 was 13.9 µM (inactive); with T47D it was 18 µM (inactive); in the assay with MCF7, 15.2 µM (inactive); with BT-549, 12.6 µM (inactive); with NCI-H522, 11.5 µM (inactive); with UACC-257 it was 22.2 µM (inactive). For the same molecule, the GI50 is 15.9 µM (inactive) in the assay with HL-60; 14.2 µM (inactive) in the assay on 786-0; 14.8 µM (inactive) in the assay with SN12C; 12.7 µM (inactive) in the assay on HCT-116; 16.9 µM (inactive) with HOP-62; 13.7 µM (inactive) in the assay with SR. Moreover, the GI50 in the assay on DU-145 is 33.5 µM (inactive).
For the molecule `N#CCCC1C(C#N)C2CC1C1C3C=CC(C3)C21` (stereo not drawn), the GI50 with SF-268, in the assay on IGROV-1, in the assay with NCI/ADR-RES, with OVCAR-3, in the assay on MOLT-4 and in the assay with HT-29 was > 100 µM (inactive) each time. For the same molecule, the GI50 in the assay with MDA-MB-231, with COLO 205, with T47D, in the assay on MCF7, in the assay on BT-549 and in the assay with NCI-H522 was > 100 µM (inactive) throughout. The GI50 in the assay with UACC-257, with HL-60, in the assay with 786-0, in the assay with HCT-116, with SR and in the assay on DU-145 was > 100 µM (inactive) each time.
For the molecule `COC1C(O)CC(OC2C(C)OC(Oc3cc(O)c4c(O)c5c(cc4c3)C[C@@H]([C@H](OC)C(=O)[C@@H](O)[C@@H](C)O)[C@H](OC3CC(OC4CC(OC6CC(C)(O)C(O)C(C)O6)C(O)C(C)O4)C(O)C(C)O3)C5=O)CC2OC(C)=O)OC1C` (stereo partly drawn), the GI50 with SF-268 was 97.1 µM (inactive); with IGROV-1 it was 41.1 µM (inactive); with NCI/ADR-RES, > 100 µM (inactive); in the assay on OVCAR-3 it was > 100 µM (inactive); in the assay on MOLT-4 it was 17.5 µM (inactive); in the assay with HT-29 it was 65.2 µM (inactive). For the same molecule, the GI50 in the assay on MDA-MB-231 is 91.6 µM (inactive); with COLO 205, 70.8 µM (inactive); with T47D, 66.5 µM (inactive); in the assay on MCF7 it was 24.4 µM (inactive); in the assay on BT-549, > 100 µM (inactive); in the assay on NCI-H522 it was 39.1 µM (inactive). In addition, the GI50 with HL-60 is > 100 µM (inactive); in the assay with 786-0, > 100 µM (inactive); with SN12C, 32.5 µM (inactive); with HCT-116, 59.2 µM (inactive); in the assay on HOP-62, > 100 µM (inactive); with SR it was 63.5 µM (inactive). Further, the GI50 in the assay on DU-145 was > 100 µM (inactive).
As for `COC1=CC(=O)c2c(cc(COP(=O)(OCC3OC(n4cc(F)c(=O)[nH]c4=O)CC3O)N(C)CCCCCl)n2C)C1=O` (stereo not drawn), the GI50 in the assay on SF-268 was < 0.01 µM (active); in the assay with IGROV-1, 0.479 µM (active); in the assay with NCI/ADR-RES it was 0.678 µM (active); with OVCAR-3, 1.2 µM (inactive); in the assay with MOLT-4, 0.0527 µM (active); in the assay with HT-29, 0.233 µM (active). Moreover, the GI50 in the assay with MDA-MB-231 was 3.82 µM (inactive); in the assay on T47D it was 0.991 µM (active); in the assay on MCF7, < 0.01 µM (active); in the assay with BT-549 it was 1.56 µM (inactive); in the assay on NCI-H522, 0.495 µM (active); with UACC-257, 18.5 µM (inactive). For the same molecule, the GI50 in the assay with HL-60 is 0.195 µM (active); in the assay with 786-0, 0.186 µM (active); in the assay on SN12C, < 0.0248 µM (active); in the assay with HCT-116, 0.138 µM (active); in the assay with HOP-62, 0.0413 µM (active); in the assay with SR it was < 0.01 µM (active). Moreover, the GI50 in the assay with DU-145 was 0.321 µM (active).
Turning to `CC#CC(O)(C(=O)OC1CC2CCC(C1)N2C)C1CCCC1` (stereo not drawn), the GI50 with SF-268, with IGROV-1, in the assay with NCI/ADR-RES, in the assay with OVCAR-3, in the assay with MOLT-4 and in the assay on HT-29 was > 100 µM (inactive) each time. Further, the GI50 with MDA-MB-231, with COLO 205, in the assay on T47D, with MCF7, with BT-549 and with UACC-257 was > 100 µM (inactive) each time. Further, the GI50 in the assay on HL-60, in the assay on 786-0, with SN12C, in the assay with HCT-116, in the assay on HOP-62 and in the assay on SR was > 100 µM (inactive) in each case. Moreover, the GI50 in the assay with DU-145 was > 100 µM (inactive).
